Assay results from publication PMC12621175, “Scaffold Fusion and SAR Transfer with a Chemical Language Model Generates Novel Liver X Receptor Modulators” (Journal of Medicinal Chemistry, 2025).
“Also recorded” adds a separate entry of the source.

Legend:
ABCA1 = test: qPCR of LXR-regulated mRNA expression in HepG2: ABCA1; type: cell-based, human; details: HepG2, 24 h
APOE = test: qPCR of LXR-regulated mRNA expression in HepG2: APOE; type: cell-based, human; details: HepG2, 24 h
HepG2 cells [1] = test: lipid accumulation assay (Oil Red O staining); type: cell-based; details: 72 h
Method: HepG2 cells were seeded in collagen-coated 96-well plates at a density of 10^4 cells per well and incubated for 24 h. For the lipolytic mode, the cells were pretreated for additional 24 h with 66.7 μM oleic acid and 33.3 μM palmitic acid in culture medium with 1% bovine serum albumin (BSA). The cells were then treated with DMSO (0.1%) alone or in combination with test compounds in the culture medium. After 72 h, the cells were washed with PBS (2 × 50 μL) and fixed with 10% formalin solution (50 μL) for 15 min. After removal of the fixative, the cells were washed with H2O (2 × 50 μL), followed by 50 μL of 60% iPrOH and incubated with 50 μL Oil Red O solution (0.3% in 60% iPrOH) for 10 min to stain neutral lipids. The cells were washed quickly with 50 μL of 60% iPrOH and 2 × 50 μL of PBS. Microscopic images were taken using a 40x objective on a BZ-X810 microscope (KEYENCE, Frankfurt, Germany). Images were analyzed using ImageJ software (v1.54) according to a literature method.

HepG2 cells [2] = test: resazurin-based proliferation assay, HepG2; type: cell-based
Method: HepG2 or HEK293T cells were seeded in 96-well plates (4 × 10^4 cells per well). […] After 4, 14, and 24 h, the medium was aspirated, and the cells were incubated with 100 μM resazurin solution in Opti-MEM (prepared from a 0.15 mg/mL resazurin stock in DPBS) for 60 min. The metabolic activity was assessed by conversion of resazurin to resorufin, which was quantified by measuring absorbance at 570 nm and a reference wavelength of 600 nm. The cell count was calculated from a calibration curve with 0–10^5 cells per well in steps of 2 × 10^4.

RXRα = biological target: T1, RXRα (Homo sapiens, UniProt P19793); test: Gal4-RXRα hybrid reporter gene assay (control); type: cell-based; details: 30 μM; alone and in competition with bexarotene 1 μM
T1 construct: coding for the hinge region, and LBD of the canonical isoform of the respective nuclear receptor; expressed in transfected cells; host or cells: HEK293T
T1 sequence (P19793 227-458 limits assumed): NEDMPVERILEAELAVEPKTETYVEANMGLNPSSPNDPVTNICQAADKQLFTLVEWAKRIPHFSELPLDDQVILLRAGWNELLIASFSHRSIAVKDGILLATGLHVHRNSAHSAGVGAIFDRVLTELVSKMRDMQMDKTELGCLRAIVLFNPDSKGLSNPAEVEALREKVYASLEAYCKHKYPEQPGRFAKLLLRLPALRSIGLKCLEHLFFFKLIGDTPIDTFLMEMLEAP
Text: For the hybrid reporter gene assays, the previously reported Gal4-fusion receptor plasmids pFA-CMV-hRORα-LBD, pFA-CMV-hRORβ-LBD, pFA-CMV-hRORγ-LBD, pFA-CMV-hLXRα-LBD, pFA-CMV-hLXRβ-LBD, pFA-CMV-hFXR-LBD, pFA-CMV-hPXR-LBD, and pFA-CMV-hRXRα-LBD, coding for the hinge region, and LBD of the canonical isoform of the respective nuclear receptor were used. pFR-Luc (Stratagene) was used as the reporter plasmid, and pRL-SV40 (Promega) was used in all assays for the normalization of transfection efficiency and cell growth. pECE-SV40-Gal4-VP16 was a gift from Lea Sistonen (Addgene plasmid #71728). The LXR-responsive reporter ABCA1-pGL3 was used for the full-length reporter gene assay.
The day before transfection, HEK293T cells were seeded in 96-well plates (4 × 10^4 cells/well). […] Luminescence was measured with a Spark 10 M luminometer (Tecan Deutschland GmbH). […] EC50/IC50 values and the standard errors thereof were calculated with the mean fold activation values by OriginPro, Version 2025 (OriginLab Corporation, Northampton, MA, USA), fitting a dose–response curve with a variable Hill slope (Levenberg–Marquardt algorithm). […]
mediated inhibition of the LXR/RXR heterodimer. […] (c) Quantification of LXR expression on mRNA level in HEK293T and HepG2 cell lines using qRT -PCR. Expression levels were calculated according to the 2 -ΔCt method relative to GAPDH. […]

Structure (SMILES)	ABCA1 mRNA expression (ABCA1; 3 μM)	APOE mRNA expression (APOE; 3 μM)	lipid accumulation (lipogenesis) (HepG2 cells [1]; 10 μM, compared to T0901317 10 μM)	antiproliferative effect (HepG2 cells [2]; 10 μM)	ABCA1 mRNA expression (ABCA1; 30 μM)	RXR modulation (RXRα)	APOE mRNA expression (APOE; 30 μM)	effect on T0901317-induced lipogenesis (HepG2 cells [1]; 30 μM with T0901317 10 μM)	lipid accumulation (lipogenesis) (HepG2 cells [1]; 30 μM)	antiproliferative effect (HepG2 cells [2]; 30 μM)
CCN(C(=O)c1ccccc1)c1ccc(C(O)(C(F)(F)F)C(F)(F)F)cc1 [Compound 1, N-Ethyl-N-(4-[1,1,1,3,3,3-hexafluoro-2-hydroxypropan-2-yl]phenyl)benzamide]	induced	induced	formation of less lipids in HepG2 cells than the structurally related full agonist T0901317; also recorded: induced lipogenesis after 72 h less efficiently	did not inhibit the proliferation						
CS(=O)(=O)c1cccc(-c2ccc(CN(Cc3cccc(C(F)(F)F)c3Cl)CC(c3ccccc3)c3ccccc3)cc2)c1 [Compound 3, N-(2-Chloro-3-[trifluoromethyl]benzyl)-N-([3′-{methylsulfonyl}-{1,1′-biphenyl}-4-yl]methyl)-2,2-diphenylethan-1-amine]					did not significantly alter the expression; also recorded: only a weak impact	neither activated RXR nor competed with literature RXR agonist bexarotene	did not significantly alter the expression; also recorded: only a weak impact	significantly attenuated T0901317-induced lipogenesis; also recorded: mitigated T090-induced steatosis	did not induce lipid accumulation; also recorded: did not stimulate lipid accumulation	did not inhibit the proliferation
